US12257264B2, “Combination therapy for HIV with adenosine derivative and capsid inhibitors” (Brii Biosciences, Inc., priority 2021, dated 2025)
Several values for one entry are separate records, joined by “and”; a condition that tells them apart may be missing. Identical values can stand only once.

Assays:
[1] = Plasma exposures following IV infusion alone or in combination to Sprague-Dawley rats
Experimental: The pharmacokinetics of EFdA and prodrug formula 4-A, as well as lenacapavir were studied in rats after IV infusion administration alone or in combination at a dose of 1.0 mg/kg each.
Formulations: The prodrugs and lenacapavir were formulated alone or in combination as solutions at 1.0 mg/mL each in 20% […], 10% Solutol aqueous solution within 0.5 hour prior to dose.
Dose Administration and Sample Collection: The in-life phase of this study was conducted at the WuXi Apptec (WuXi) at Shanghai, China in accordance with the WuXi Institutional Animal Care and Use Committee (IACUC) standard animal procedures along with the IACUC guidelines that are in compliance with the Animal Welfare Act, the Guide for the Care and Use of Laboratory Animals. and was approved by the IACUA Committee. Male Sprague-Dawley rats (0.262+/−0.019 kg) were used for the studies. Each drug was administered as a single dose by 30-min IV infusion (1 ml/kg) alone or in combination. Plasma samples were collected at 0 (pre-dose), 5, 10, 15 and 30 min, 1, 2, 4, 7, 12 and 24 h post-dose. Blood (approximately 0.1 mL) was processed immediately for plasma by centrifugation at 3,200 g at 4° C. for 10 min within half an hour of collection. Plasma samples were frozen and maintained at −70° C. until analyzed. To stabilize the prodrug at the sample collection and subsequent analysis, the following stabilizing reagents were added to the blood collection K2EDTA tubes on wet ice prior to sample collection: for each 100 mL of blood, 10 mL of premade inhibitor cocktail consists of 600 mM Citric Acid, 400 mM PMSF, 400 mM NaF, and 400 mM Dichlorvos.
Determination of EFdA and Prodrugs in plasma: Briefly, plasma (20 μL) was mixed with 100 l acetonitrile to precipitate protein. Consistent with sample collection procedure, the same cocktail protocol was also added to stabilize the prodrug in the standard and QC samples.
Bioanalysis: A Sciex API-6500 Plus triplequadrupole mass spectrometer coupled with a Waters Acquity UPLC system (Framingham, MA 01701) was used for quantitative analysis of plasma samples. The column was a Waters HSS T3 column (2.1×50 mm, 1.8 micrometer). The mobile phases used were: A, 0.1% formic acid in water; B, 0.1% formic acid in acetonitrile. For the analysis of EFdA and prodrugs in plasma, the flow rate was 0.6 mL/min with a total run time of 2.0 min. […] Detection of the prodrug and EFdA were achieved using positive ion electrospray mass spectroscopic mode using unit resolution mode. Multiple reaction monitoring (MRM) modes were used to quantify both prodrug and EFdA, e.g. the MRM transition for EFdA was 294.0-154.2 Da, and the transition for prodrug 4-A was 449.3-164.9 Da. For the analysis of lenacapavir in plasma, the flow rate was 0.7 mL/min with a total run time of 1.5 min. The HPLC gradient was initiated at 95% A/5% B for 0.50 min, followed by linear gradient increase to […] over the next 0.2 min; the gradient was subsequently maintained at 100% of mobile B over the next 0.7 min before ramping down to 95% mobile phase A within the following 0.1 min. Detection of lenacapavir was achieved using positive ion electrospray mass spectroscopic mode using unit resolution mode. Multiple reaction monitoring (MRM) modes were used to quantify lenacapavir, e.g. the MRM transition for lenacapavir was 968.1-869.4 Da. Peak areas were integrated by the Sciex program Analyst®, version 1.6.3, operating on a Windows 7 computer where concentrations were determined by a weighted (1/x2) linear regression of peak area ratios (peak area of EFdA/peak area of corresponding IS) versus the nominal concentrations of the plasma calibration standards. Calculations were performed on unrounded numbers. Overall, Analyst® determined the precision and accuracy for the calibration standards and QC samples.

[2] = Plasma exposures following oral administration to beagle dogs; details: for Prodrug formula 4-A Concentrations in Dog Plasma / EFdA Concentrations in Dog Plasma / concentration at 0.25 h / concentration at 0.5 h / concentration at 1 h: Prodrug formula 4-A PO 8.25 mg/kg; for concentration at 0.25 h / concentration at 0.5 h / concentration at 1 h: male, beagle, dog, in vivo, po, Prodrug formula 4-A Concentrations in Dog Plasma
[3] = test system: HIV-1 NL4-3 in MT-4 cells; experiment: Two-drug combination antiviral cytoprotection (CPE) assay, MacSynergy II analysis; format: cell-based; details: HIV-1 NL4-3 virus in MT4 cells
Experimental: On the day preceding the assay, the cells were split 1:2 to assure they were in an exponential growth phase at the time of infection.
Combination cytotoxicity was evaluated in parallel on two identical assay plates (i.e., duplicate measurements) that included cell control wells.

[4] = Prodrug formula 4-A IV infusion 1.0 mg/kg alone, 4.00 hrs, individual animals
[5] = Prodrug formula 4-A IV infusion 1.0 mg/kg alone, 7.00 hrs, individual animals
[6] = Prodrug formula 4-A IV infusion 1.0 mg/kg alone, 12.0 hrs, individual animals
[7] = Prodrug formula 4-A IV infusion 1.0 mg/kg alone, 24.0 hrs, individual animals
[8] = Prodrug formula 4-A IV infusion 1.0 mg/kg with Lenacapavir, 7.00 hrs, individual animals
[9] = Prodrug formula 4-A IV infusion 1.0 mg/kg with Lenacapavir, 12.0 hrs, individual animals
[10] = Prodrug formula 4-A IV infusion 1.0 mg/kg with Lenacapavir, 24.0 hrs, individual animals
[11] = Prodrug formula 4-A IV infusion 1.0 mg/kg with Lenacapavir, 48.0 hrs, individual animals
[12] = Prodrug formula 4-A IV infusion 1.0 mg/kg with Lenacapavir, 72.0 hrs, individual animals

For C#C[C@]1(COC(=O)OCc2oc(=O)oc2C)O[C@@H](n2cnc3c(N)nc(F)nc32)C[C@@H]1O [Formula 4-A, ((2R,3S,5R)-5-(6-amino-2-fluoro-9H-purin-9-yl)-2-ethynyl-3-hydroxytetrahydrofuran-2-yl)methyl ((5-methyl-2-oxo-1,3-dioxol-4-yl)methyl) carbonate], the “Prodrug formula 4A Concentrations in Rat Plasma When Dosed alone” value ([1]; Prodrug formula 4-A IV infusion 1.0 mg/kg alone, 0.0830 hrs, individual animals) was “BQL”, the “Prodrug formula 4A Concentrations in Rat Plasma When Dosed alone” value ([1]; Prodrug formula 4-A IV infusion 1.0 mg/kg alone, 0.167 hrs, individual animals) was “BQL” and the “Prodrug formula 4A Concentrations in Rat Plasma When Dosed alone” value ([1]; Prodrug formula 4-A IV infusion 1.0 mg/kg alone, 0.250 hrs, individual animals) was “BQL”. The “Prodrug formula 4A Concentrations in Rat Plasma When Dosed alone” value ([1]; Prodrug formula 4-A IV infusion 1.0 mg/kg alone, 0.500 hrs, individual animals) was “BQL”, the “Prodrug formula 4A Concentrations in Rat Plasma When Dosed alone” value ([1]; Prodrug formula 4-A IV infusion 1.0 mg/kg alone, 1.00 hrs, individual animals) was “BQL” and the “Prodrug formula 4A Concentrations in Rat Plasma When Dosed alone” value ([1]; Prodrug formula 4-A IV infusion 1.0 mg/kg alone, 2.00 hrs, individual animals) was “BQL”. The “EFdA Concentrations in Rat Plasma When Dosed Alone” value [1, 4] was “BQL”, the “Prodrug formula 4A Concentrations in Rat Plasma When Dosed alone” value [1, 4] was “BQL” and the “EFdA Concentrations in Rat Plasma When Dosed Alone” value [1, 5] was “BQL”. For the same compound, the “Prodrug formula 4A Concentrations in Rat Plasma When Dosed alone” value [1, 5] was “BQL”, the “EFdA Concentrations in Rat Plasma When Dosed Alone” value [1, 6] was “BQL” and the “Prodrug formula 4A Concentrations in Rat Plasma When Dosed alone” value [1, 6] was “BQL”. The “EFdA Concentrations in Rat Plasma When Dosed Alone” value [1, 7] was “BQL”, the “Prodrug formula 4A Concentrations in Rat Plasma When Dosed alone” value [1, 7] was “BQL” and the “Prodrug formula 4A Concentrations in Rat Plasma When Dosed with Lenacapavir” value ([1]; Prodrug formula 4-A IV infusion 1.0 mg/kg with Lenacapavir, 0.0830 hrs, individual animals) was 1.37 ng/mL and 5.19 ng/mL and 1.54 ng/mL and 2.80 ng/mL. The “Prodrug formula 4A Concentrations in Rat Plasma When Dosed with Lenacapavir” value ([1]; Prodrug formula 4-A IV infusion 1.0 mg/kg with Lenacapavir, 0.167 hrs, individual animals) was “BQL”, the “Prodrug formula 4A Concentrations in Rat Plasma When Dosed with Lenacapavir” value ([1]; Prodrug formula 4-A IV infusion 1.0 mg/kg with Lenacapavir, 0.250 hrs, individual animals) was 1.13 ng/mL and BQL (2×) and 2.38 ng/mL and the “Prodrug formula 4A Concentrations in Rat Plasma When Dosed with Lenacapavir” value ([1]; Prodrug formula 4-A IV infusion 1.0 mg/kg with Lenacapavir, 0.500 hrs, individual animals) was “BQL”. The “Prodrug formula 4A Concentrations in Rat Plasma When Dosed with Lenacapavir” value ([1]; Prodrug formula 4-A IV infusion 1.0 mg/kg with Lenacapavir, 1.00 hrs, individual animals) was “BQL”, the “Prodrug formula 4A Concentrations in Rat Plasma When Dosed with Lenacapavir” value ([1]; Prodrug formula 4-A IV infusion 1.0 mg/kg with Lenacapavir, 2.00 hrs, individual animals) was “BQL” and the “Prodrug formula 4A Concentrations in Rat Plasma When Dosed with Lenacapavir” value ([1]; Prodrug formula 4-A IV infusion 1.0 mg/kg with Lenacapavir, 4.00 hrs, individual animals) was “BQL”. For the same compound, the “EFdA Concentrations in Rat Plasma When Dosed with Lenacapavir” value (“EFdA Concentrations … with Lenacapavir” below) [1, 8] was “BQL”, the “Prodrug formula 4A Concentrations in Rat Plasma When Dosed with Lenacapavir” value [1, 8] was “BQL” and the “EFdA Concentrations … with Lenacapavir” value [1, 9] was “BQL”. For the same compound, the “Prodrug formula 4A Concentrations in Rat Plasma When Dosed with Lenacapavir” value [1, 9] was “BQL”, the “EFdA Concentrations … with Lenacapavir” value [1, 10] was “BQL” and the “Prodrug formula 4A Concentrations in Rat Plasma When Dosed with Lenacapavir” value [1, 10] was “BQL”. For the same compound, the “EFdA Concentrations … with Lenacapavir” value [1, 11] was “BQL”, the “Prodrug formula 4A Concentrations in Rat Plasma When Dosed with Lenacapavir” value [1, 11] was “BQL” and the “EFdA Concentrations … with Lenacapavir” value [1, 12] was “BQL”. For the same compound, the “Prodrug formula 4A Concentrations in Rat Plasma When Dosed with Lenacapavir” value [1, 12] was “BQL”, the concentration at 0.25 h ([1]; male, Sprague-Dawley, rat, in vivo, 1 mg/kg, Prodrug formula 4A Concentrations in Rat Plasma When Dosed alone, Prodrug formula 4-A IV infusion 1.0 mg/kg alone, 0.250 hrs, individual animals) was 2.27 ng/mL and the concentration at 0.083 h ([1]; male, Sprague-Dawley, rat, in vivo, Prodrug formula 4A Concentrations in Rat Plasma When Dosed with Lenacapavir, Prodrug formula 4-A IV infusion 1.0 mg/kg with Lenacapavir, 0.0830 hrs, Mean) was 2.73 ng/mL. For the same compound, the concentration at 0.25 h ([1]; male, Sprague-Dawley, rat, in vivo, Prodrug formula 4A Concentrations in Rat Plasma When Dosed with Lenacapavir, Prodrug formula 4-A IV infusion 1.0 mg/kg with Lenacapavir, 0.250 hrs, Mean) was 1.76 ng/mL, the “Prodrug detected in the systemic circulation” value ([1]; rats, in the absence and presences of lenacapavir) was “minimal prodrug detected in the systemic circulation” and the “Prodrug formula 4-A Concentrations in Dog Plasma” value ([2]; 0.250 hrs, individual animals, 8.25 mg/kg) was 1.63 ng/mL and 1.09 ng/mL. For the same compound, the “Prodrug formula 4-A Concentrations in Dog Plasma” value ([2]; 0.500 hrs, individual animals, 8.25 mg/kg) was “BQL”, the “Prodrug formula 4-A Concentrations in Dog Plasma” value ([2]; 1.00 hrs, individual animals, 8.25 mg/kg) was “BQL” and the “Prodrug formula 4-A Concentrations in Dog Plasma” value ([2]; 2.00 hrs, individual animals) was “BQL”. The “Prodrug formula 4-A Concentrations in Dog Plasma” value ([2]; 4.00 hrs, individual animals) was “BQL”, the “Prodrug formula 4-A Concentrations in Dog Plasma” value ([2]; 6.00 hrs, individual animals) was “BQL” and the “Prodrug formula 4-A Concentrations in Dog Plasma” value ([2]; 8.00 hrs, individual animals) was “BQL”. For the same compound, the “EFdA Concentrations in Dog Plasma” value ([2]; 12.0 hrs, individual animals) was “BQL”, the “Prodrug formula 4-A Concentrations in Dog Plasma” value ([2]; 12.0 hrs, individual animals) was “BQL” and the “EFdA Concentrations in Dog Plasma” value ([2]; 24.0 hrs, individual animals) was “BQL”. The “Prodrug formula 4-A Concentrations in Dog Plasma” value ([2]; 24.0 hrs, individual animals) was “BQL”, the “EFdA AUC and Cmax compared with a dose-equivalent EFdA” value ([2]; dogs, oral) was “higher AUC and Cmax” and the “Prodrug detected in the systemic circulation” value ([2]; dogs, oral) was “minimal prodrug detected in the systemic circulation”. For the same compound, the concentration at 0.25 h ([2]; 8.25 mg/kg, 0.250 hrs, Mean) was 1.28 ng/mL, the concentration at 0.25 h ([2]; 8.25 mg/kg, 0.250 hrs, individual animals) was 1.13 ng/mL and the concentration at 0.5 h ([2]; 8.25 mg/kg, 0.500 hrs, Mean) was 1.68 ng/mL. It also gave a concentration at 0.5 h ([2]; 8.25 mg/kg, 0.500 hrs, individual animals) of 1.68 ng/mL, a concentration at 1 h ([2]; 8.25 mg/kg, 1.00 hrs, Mean) of 1.43 ng/mL and a concentration at 1 h ([2]; 8.25 mg/kg, 1.00 hrs, individual animals) of 1.43 ng/mL. For the same compound, the “Antiviral activity upon combination with lenacapavir” value [3] was “synergistic antiviral activity”.
